US8624079B2, “Knockin mouse with a disruption in a PXR gene expressing human PXR” (ITI Scotland Limited, priority 2007, dated 2014)
Entries after “also recorded” stand apart in the source; their conditions may differ. Read-outs that look alike come from different tables or passages of the source.

What was measured:
liver cells = assay: BrdU incorporation in liver (hepatic cell proliferation, S-phase labelling index); type: in vivo, mouse; settings: wild-type and huCAR mice
[1] = system: components of drug metabolism pathways; settings: inducer of components of drug metabolism pathways; species in which it is known to act more potently; cited from earlier work
Cyp3a11 [2] = assay: Cyp3a11 protein expression in liver microsomes of treated mice by SDS-PAGE and Western blotting; settings: for Cyp3a11 expression in liver (Western blot): single injection 0, 1, 10, 50 mg/kg, 48 hours
Experimental: (§1) Dosing solutions were prepared on the day of administration by adding corn oil to the requisite quantity of test substance and stirring to obtain a solution or fine suspension. The concentration of PCN was 10 mg/ml and Rif 2.5 mg/ml of supplied chemical, without any correction for purity. Records of preparation were retained.
The volume of vehicle and solutions of inducing agents administered was 10 ml/kg bodyweight. This route of administration was chosen for consistency with previously published work. […]
(§2) Quantification of Cyp3a11, Cyp2b10 and PXR protein in liver microsomes of all mice samples was carried out by SDS-PAGE and Western blotting. To detect murine and human PXR protein, an antibody (RF8) was employed. For the identification of Cyp3a and Cyp2b, […] were used, (CH32 and CH4, respectively).

Cyp2b10 [3] = assay: pentoxyresorufin-O-deethylation (PROD) and BROD activity assay in liver microsomes of treated mice
Cyp2b10 [4] = assay: Cyp2b10 protein expression of treated mice by SDS-PAGE and Western blotting; settings: for Cyp2b10 induction (Western blot and PROD activity): CITCO 10 mg/kg; for Cyp2b10 induction profile (Western blot and PROD, liver microsomes): wild-type vs huCAR mice, increasing amounts
Experimental: as §1
Control animals were administered vehicle (corn oil) daily by intraperitoneal injection. The volume of vehicle and solutions of inducing agents administered was 10 ml/kg bodyweight. This route of administration was chosen for consistency with previously published work. […]
as §2

Cyp3a11 [5] = settings: wild-type mice (Ma et al. 2007); cited from earlier work
cytochrome P450 enzymes = settings: single ip; for induction of testosterone 16-beta-hydroxylation: 1 mg/kg
Experimental: The study consisted of 3 animals per group. Control groups consisted of mice treated with either corn oil daily for 4 days or mice administered a single injection of corn oil. The treated mice were dosed with inducing agents as detailed in Table 3.1.
PXR activity was determined by measuring the metabolism of a number of cytochrome P450 substrates which are metabolised to different extents by different cytochrome P450 enzymes. The following assays were performed: • 7-benzyloxyquinoline (BQ) activity was determined in liver microsomes. • Testosterone hydroxylase activity was determined in liver microsomes (LMS HPLC-006). • The specific activities of these reactions was expressed per mg protein as determined using the Lowry assay (LMS Spec-0001).

[6] = Experimental: For the same animals, plasma levels of alanine aminotransferase (ALT), alkaline phosphatase (ALP) and aspartate aminotransferase (AST) were also measured (see FIG. 40). […] Both compounds were administered at 40 mg/kg.
Plasma levels of alanine aminotransferase (ALT), alkaline phosphatase (ALP) and aspartate aminotransferase (AST) were also measured (see FIG. 46).

[7] = Pentobarbitone sleeping test; type: in vivo, mouse; settings: single ip dose 25 mg/kg
Experimental: In this experiment, the activity of these transcription factors in combination was determined by measuring the barbiturate induced sleeping time. Sleeping time has been known for many years to be directly proportional to the hepatic cytochrome P450 activity and this activity can be at least in part ascribed to the P450 levels in the liver determined by CAR and PXR function.
Mice were given a single intraperitoneal dose of Narcoren (sodium pentobarbitone; purchased via a Veterinary Consultant; distributed by Merial GmbH, Germany) at 25 mg/kg of body weight. The time taken for the mice to lose, and subsequently to regain, their righting reflex was measured.

[8] = wild type mice, TCPOBOP 1 mg/kg

Clc1ccc(-c2nc3sccn3c2C=NOCc2ccc(Cl)c(Cl)c2)cc1 [CITCO, 6-(4-chlorophenyl)imidazo[2,1-b][1,3]thiazole-5-carbaldehyde O-(3,4-dichlorobenzyl)oxime]
fraction of BrdU positive cells in the liver (liver cells; 20 mg/kg 4 times daily, one day after final dose): elevated counts of BrdU positive liver cells only in huCAR animals, not in the wild-type
More potent in: [1]: human
Cyp3a11 expression in liver (Western blot) (Cyp3a11 [2]; huCAR mice): clearly induced
Cyp3a11 expression in liver (Western blot) (Cyp3a11 [2]; wild type mice): did not induce
PROD activity (Cyp2b10 [3]; huCAR mice, increasing amounts of CITCO): marked, dose-dependent induction of PROD activity
Cyp2b10 induction (Western blot and PROD activity) (Cyp2b10 [4]; huCAR mice): strong induction
Cyp2b10 expression in liver (Western blot) (Cyp2b10 [4]; huCAR mice, single injection 0, 1, 10, 50 mg/kg, 48 hours): clearly induced
Cyp2b10 induction (Western blot and PROD activity) (Cyp2b10 [4]; koPXR mice): Some induction
Cyp2b10 expression in liver (Western blot) (Cyp2b10 [4]; wild type mice, single injection 0, 1, 10, 50 mg/kg, 48 hours): did not induce
Cyp2b10 induction (Western blot and PROD activity) (Cyp2b10 [4]; wild-type mice): not substantially induced
Cyp2b10 induction profile (Western blot and PROD, liver microsomes) (Cyp2b10 [4]): stronger response in huCAR than in the wild-type

Clc1ccccc1C(c1ccccc1)(c1ccccc1)n1ccnc1 [Clotrimazole]
More potent in: [1]: mouse

CC(=O)[C@H]1[C@H](C#N)C[C@H]2[C@@H]3CC=C4C[C@@H](O)CC[C@]4(C)[C@H]3CC[C@@]21C [PCN, 5-Pregnen-3β-ol-20-one-16α-carbonitrile]
induction of Cyp3a11 mRNA (Cyp3a11 [5]): strongly induced
More potent in: [1]: mouse

Clc1cnc(Oc2ccc(Oc3ncc(Cl)cc3Cl)cc2)c(Cl)c1 [TCPOBOP]
induction of testosterone 16-beta-hydroxylation (cytochrome P450 enzymes; huPXR mice): 1.7 fold
induction of 6-beta-hydroxylation of testosterone (cytochrome P450 enzymes; wild type and huPXR mice, TCPOBOP 0.3 and 1 mg/kg): inducible in both strains of mouse
induction of testosterone 16-beta-hydroxylation (cytochrome P450 enzymes; wild type mice): approximately 6 fold
induction of testosterone 16-alpha-hydroxylation (cytochrome P450 enzymes; wild type mice, TCPOBOP 0.3 and 1 mg/kg): significantly induced
fraction of BrdU positive cells in the liver (liver cells; single dose 3 mg/kg, one day after dose): elevated counts of BrdU positive liver cells only in wild-type animals
More potent in: [1]: mouse
Cyp3a11 expression (Western blot and BQ activity) (Cyp3a11 [2]; [8]): somewhat induced
Cyp2b10 expression (Western blot and PROD activity) (Cyp2b10 [4]; huCAR mice, TCPOBOP 1 mg/kg): did not significantly induce
Cyp2b10 induction in liver (Western blot, densitometry) (Cyp2b10 [4]; koCAR mice, 1 mg/kg): no Cyp2b10 was induced
Cyp2b10 protein expression and PROD activity (Cyp2b10 [4]; koPXR mice, TCPOBOP 1 mg/kg): comparable to wild type
Cyp2b10 expression (Western blot and PROD activity) (Cyp2b10 [4]; [8]): induced; also recorded: strongly induced
Cyp2b10 induction profile (Western blot and PROD, liver microsomes) (Cyp2b10 [4]): more strongly in the wild-type than huCAR mice

C[C@@H]1C[C@H]2[C@@H]3CCC4=CC(=O)C=C[C@]4(C)[C@@]3(F)[C@@H](O)C[C@]2(C)[C@@]1(O)C(=O)CO [dexamethasone]
mortality ([6]; huPXR mice, dexamethasone 60 mg/kg): One dexamethasone-treated huPXR mouse died
increase in plasma ALT levels and liver weights ([6]; mouse, in vivo, 30 mg/kg): clearly more pronounced in mice lacking murine PXR
Cyp2b10 induction (PROD activity), comparison (Cyp2b10 [3]; huCAR vs wild type mice, 10 mg/kg): weaker in huCAR than in wild type mice
PROD activity (Cyp2b10 [3]; koCAR mice, 40 mg/kg): still induced
PROD activity (Cyp2b10 [3]; wild-type, huPXR and koPXR mice, 60 mg/kg): corresponding results were obtained
Cyp2b10 expression (Cyp2b10 [4]; mouse, in vivo, 10 mg/kg): induced Cyp2b10 expression in both wild-type and huCAR mice
Cyp2b10 induction (Western blot), comparison (Cyp2b10 [4]; mouse, in vivo, 10 mg/kg): less pronounced in huCAR than in wild-type mice
Cyp2b10 expression in liver (Western blot) (Cyp2b10 [4]; mouse, in vivo, 40 mg/kg): still induced
induction of Cyp2b10 (Western blot) (Cyp2b10 [4]; mouse, in vivo, 60 mg/kg): induced

CCCC(C)C1(CC)C(=O)NC(=O)NC1=O (stereo not shown) [pentobarbitone, sodium pentobarbitone]
Sleeping time ([7]; PXR/CAR hum (double humanised) male mouse): 34 min
Sleeping time ([7]; wt male mouse): 21 min
